Assays:
[1] = tested on: dogs with insulin-dependent diabetes mellitus (type 1 diabetes mellitus); experiment: Evaluation of side effects after administration of enavogliflozin with insulin (disease activity index, cystitis, hypoglycemia); type: in vivo, dog
Protocol: (§1) This study evaluated the safety and efficacy of enavogliflozin along with insulin therapy in dogs with insulin-dependent diabetes mellitus (type 1 diabetes mellitus) as a prospective, open-label, non-randomized, multicenter, and proof-of-concept study. The efficacy and safety of enavogliflozin were evaluated at predetermined times during the treatment period.
(§2) Diabetic dogs meeting the following criteria were allowed to participate in a clinical trial: Small dogs under 15 years of age (less than 10 kg), medium-sized dogs under 13 years of age (11 to 22 kg), stable basal dose insulin therapy at least 1 month prior to the screening visit, post-insulin nadir (Nadir) blood glucose minimum of 200 mg/dl, and blood ketone levels less than 0.6 mmol/L.
(§3) However, diabetic dogs meeting the following criteria were excluded: Dogs with chronic kidney disease (CKD IRIS stage >2), hypotension evaluation, administration of diuretics or related drugs, confirmed pregnancy, and taking drugs affecting the test within 14 days prior to test start.
(§4) The study was performed for 8 weeks, and dogs participating in the clinical trial were divided into two groups, a TOD test group and a SID test group, according to the dose of enavogliflozin administered. Enavogliflozin was administered to the TOD test group and the SID test group at a dose of 0.025 mg/kg once every 3 days and once a day, respectively. For proper evaluation, the dogs were administered the drug with breakfast, and after dosing was completed, dogs underwent physical examinations such as blood pressure, blood tests and urine tests. Thereafter, researchers adjusted insulin doses to meet target blood glucose levels during monitoring (Nadir glucose levels, 80 to 150 mg/dl).
(§5) A primary evaluation variable was whether blood fructosamine levels decreased without developing severe hypoglycemia or diabetic ketoacidosis (DKA) after the animals were randomly divided into groups. […] The diagnosis of diabetic ketoacidosis was evaluated based on the presence of anion-gap metabolic acidosis associated with excessive ketogenesis without other causes. […]

[2] = tested on: dogs with insulin-dependent diabetes mellitus (type 1 diabetes mellitus); experiment: Evaluation of body weight and blood pressure after administration of enavogliflozin; type: in vivo, dog
Protocol: as §1, §2, §3, §4, §5

[3] = tested on: dogs with insulin-dependent diabetes mellitus (type 1 diabetes mellitus); experiment: Evaluation of renal function (blood and urine tests) after administration of enavogliflozin; type: in vivo, dog; settings: after 8 weeks treatment, mean ± S.D
Protocol: as §1, §2, §3, §4
(§6) A primary evaluation variable was whether blood fructosamine levels decreased without developing severe hypoglycemia or diabetic ketoacidosis (DKA) after the animals were randomly divided into groups. A secondary evaluation variable was a change in fasting blood glucose levels, body weight and a mean bolus dose of insulin from baseline to 8 weeks. […] The diagnosis of diabetic ketoacidosis was evaluated based on the presence of anion-gap metabolic acidosis associated with excessive ketogenesis without other causes. Safety information including data on clinical and laboratory values and side effects was collected at each study visit.
(§7) Differences before and after drug administration within the groups were compared using the Student paired t-test or the Wilcoxon rank test. Furthermore, differences between groups after drug administration through a mixed ANOVA test were confirmed. Statistical analysis was performed with the R programming language (https://cran.r-project.org/) and GraphPad Prism version 7 (GraphPad Software, Inc., La Jolla, California). A p-value less than 0.05 was considered statistically significant.
Changes in renal function before and after administration of enavogliflozin were confirmed through blood and urine tests. Blood test items include blood urea nitrogen (BUN), creatinine, symmetric di-methyl-arginine (SDMA), cystatin-C, beta-2-microglobulin (B2M) and N-acetyl-β-d-glucosaminidase (NAG). Urinalysis items include urine specific gravity (USG) and urine protein to creatinine (UPC) ratio.

[4] = tested on: dogs with insulin-dependent diabetes mellitus (type 1 diabetes mellitus); experiment: Evaluation of metabolic acidosis after administration of enavogliflozin; type: in vivo, dog; settings: for Anion Gap / HCO3 / Ketone (blood) / LDH / pH (venous blood gas): after 8 weeks treatment, mean ± S.D
Protocol: as §1, §2, §3, §4, §6, §7
In addition, when lactate dehydrogenase (LDH) was measured, there was no significant change in both test groups compared to before administration. Blood pH, bicarbonate (HCO3), and the anion gap were confirmed by a venous blood gas test, and there was no significant difference before and after administration (Table 4). […] In Table 4, all values are expressed as mean±S.D, and p-values less than 0.05 were considered statistically significant.

[5] = tested on: dogs with insulin-dependent diabetes mellitus (type 1 diabetes mellitus); experiment: Evaluation of lipid metabolism after administration of enavogliflozin; type: in vivo, dog; settings: after 8 weeks treatment, mean ± S.D
Protocol: as §1, §2, §3, §4, §6, §7
Blood cholesterol was measured to confirm the effect of enavogliflozin on lipid metabolism. Changes in triglycerides and total cholesterol (T-Chol) were not statistically significant. […] In Table 5, all values are expressed as mean±S.D, and p-values less than 0.05 were considered statistically significant.

[6] = tested on: dogs with insulin-dependent diabetes mellitus (type 1 diabetes mellitus); experiment: Evaluation of regulation of blood glucose after 8 weeks of enavogliflozin with insulin; type: in vivo, dog
Protocol: as §1, §2, §3, §4, §6, §7
The regulation of blood glucose before and after administration was confirmed through blood tests (fructosamine and fasting glucose) and the daily insulin dose. […] However, fructosamine concentration was improved (p=0.041). […] In addition, as a result of comparing the difference between the test groups at 8 weeks, there was no significant difference in fasting blood glucose, fructosamine, and insulin reduction rate. However, there was a tendency towards a decrease in the SID test group taking enavogliflozin once a day compared to the TOD test group taking enavogliflozin once every 3 days (FIGS. 2A to 2C).

[7] = tested on: dogs with insulin-dependent diabetes mellitus (type 1 diabetes mellitus); experiment: Long-term effectiveness, enavogliflozin with insulin for up to 6 months; type: in vivo, dog
Protocol: In addition, long-term effectiveness was confirmed by additionally administering enavogliflozin to the companion dogs participating in the clinical trial at the same usage and dosage (SID or TOD) for up to 6 months.
as §7
Furthermore, as a result of confirming the long-term effectiveness by administering enavogliflozin at the same usage and dose for up to 6 months, fasting blood glucose, fructosamine and insulin reduction rate were improved in all SID/TOD test groups.

human SGLT2 = biological target: T1, human SGLT2 (Homo sapiens, UniProt P31639); settings: disclosed in U.S. Patent Publication No. 2015/0152075; cited from earlier work
T1 sequence (P31639 1-672): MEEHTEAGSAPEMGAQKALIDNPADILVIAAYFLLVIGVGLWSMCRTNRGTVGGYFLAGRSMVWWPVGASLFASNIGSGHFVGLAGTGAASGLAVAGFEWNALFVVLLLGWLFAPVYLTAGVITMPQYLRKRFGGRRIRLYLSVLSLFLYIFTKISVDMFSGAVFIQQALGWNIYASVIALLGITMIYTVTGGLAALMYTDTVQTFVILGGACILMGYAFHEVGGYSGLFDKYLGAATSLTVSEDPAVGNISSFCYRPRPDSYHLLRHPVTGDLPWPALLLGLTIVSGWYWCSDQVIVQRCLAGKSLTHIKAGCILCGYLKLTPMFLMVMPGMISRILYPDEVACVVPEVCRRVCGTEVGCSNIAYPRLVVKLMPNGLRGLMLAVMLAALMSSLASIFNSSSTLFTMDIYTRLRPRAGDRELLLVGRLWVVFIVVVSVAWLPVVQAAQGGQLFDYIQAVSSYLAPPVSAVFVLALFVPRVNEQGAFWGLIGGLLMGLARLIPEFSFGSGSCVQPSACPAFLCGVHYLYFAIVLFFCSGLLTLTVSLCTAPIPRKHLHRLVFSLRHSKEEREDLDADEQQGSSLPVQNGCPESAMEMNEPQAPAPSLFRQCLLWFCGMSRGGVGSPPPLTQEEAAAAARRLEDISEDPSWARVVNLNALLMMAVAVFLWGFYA

[8] = both groups (TOD and SID), 0.025 mg/kg with insulin, 8 weeks
[9] = SID test group, 0.025 mg/kg once a day with insulin
[10] = TOD test group, 0.025 mg/kg once every 3 days with insulin
[11] = TOD test group, 0.025 mg/kg once every 3 days with insulin, 8 weeks
[12] = SID administration group, 0.025 mg/kg once a day with insulin, up to 6 months (p<0.0234)

SMILES: OC[C@H]1O[C@@H](c2cc(Cc3ccc(C4CC4)cc3)c(Cl)c3c2CCO3)[C@H](O)[C@@H](O)[C@@H]1O [enavogliflozin]
- new cases of bacterial cystitis ([1]; any test group (TOD, SID), 8 weeks): no new cases
- disease activity index (appetite, activity, stool status) ([1]; dog, in vivo): no difference between before and after administration
- severe hypoglycemia leading to loss of consciousness or seizures ([1]; dog, in vivo): no severe hypoglycemia
- Blood pressure (systolic), change after administration ([2]; SID test group, 0.025 mg/kg once a day with insulin, 8 weeks (p=0.033)): significantly reduced
- BCS (body condition score), change after administration [2, 8]: no difference
- Body weight, change after administration [2, 8]: tended to decrease
- BUN ([3]; SID test group (n = 8), 0.025 mg/kg once a day with insulin): 21.9 ± 6.8 mg/dL
- Creatinine [3, 9]: 0.6 ± 0.1 mg/dL
- Cystatin-C [3, 9]: 0.5 ± 0.1 mg/L
- NAG [3, 9]: 9.0±4.3 U/g
- SDMA [3, 9]: 7.8 ± 1.4 µg/dL
- UPC (urine protein to creatinine ratio) [3, 9]: 1.1±1.6
- USG (urine specific gravity) [3, 9]: 1.043±0.008
- BUN ([3]; TOD test group (n = 10), 0.025 mg/kg once every 3 days with insulin): 22.5 ± 11.7 mg/dL
- Creatinine [3, 10]: 0.9 ± 0.2 mg/dL
- Cystatin-C [3, 10]: 0.5 ± 0.2 mg/L
- NAG [3, 10]: 7.6±5.8 U/g
- SDMA [3, 10]: 9.2 ± 5.5 µg/dL
- UPC (urine protein to creatinine ratio) [3, 10]: 1.1±1.8
- USG (urine specific gravity) [3, 10]: 1.034±0.011
- Anion Gap [4, 9]: 13.2 ± 4.5 mmol/L
- HCO3 [4, 9]: 25.0 ± 2.5 mmol/L
- Ketone (blood) [4, 9]: 0.4 ± 0.1 mmol/L
- LDH [4, 9]: 230.8 ± 79.6 U/L
- pH (venous blood gas) [4, 9]: 7.4 ± 0.1
- Anion Gap [4, 10]: 12.0 ± 4.2 mmol/L
- HCO3 [4, 10]: 24.3 ± 3.6 mmol/L
- Ketone (blood) [4, 10]: 0.2 ± 0.1 mmol/L
- LDH [4, 10]: 444.5 ± 584.7 U/L
- pH (venous blood gas) [4, 10]: 7.4 ± 0.1
- diabetic ketoacidosis ([4]; both test groups, eight weeks after administration): did not occur
- Lipase [5, 9]: 226.8 ± 215.0 U/L
- T-Chol (total cholesterol) [5, 9]: 261.3 ± 150.5 mg/dL
- Triglyceride [5, 9]: 515.2 ± 977.9 mg/dL
- Lipase [5, 10]: 197.3 ± 230.1 U/L
- T-Chol (total cholesterol) [5, 10]: 327.6 ± 114.7 mg/dL
- Triglyceride [5, 10]: 384.9 ± 425.3 mg/dL
- daily insulin dose ([6]; SID test group, 0.025 mg/kg once a day with insulin, after 8 weeks (before: 2.0±0.8)): 1.5±0.5 units/kg/day
- fasting blood glucose ([6]; SID test group, 0.025 mg/kg once a day with insulin, after 8 weeks (before: 330.8±118.0; p=0.0078)): 215.5 ± 126.2 mg/dL
- fructosamine levels ([6]; SID test group, 0.025 mg/kg once a day with insulin, after 8 weeks (before: 475.3±107.6; p=0.034)): 393.1 ± 122.9 µmol/L
- daily insulin dose, change before/after administration [6, 11]: decreased, but the difference was not statistically significant
- fasting blood glucose, change before/after administration [6, 11]: decreased, but the difference was not statistically significant
- fructosamine concentration, change before/after administration ([6]; TOD test group, 0.025 mg/kg once every 3 days with insulin, 8 weeks (p=0.041)): improved
- fasting blood glucose, 6 months [7, 12]: statistically significant reduction
- insulin reduction rate, 6 months [7, 12]: statistically significant reduction
- fructosamine, 6 months ([7]; TOD test group, 0.025 mg/kg once every 3 days with insulin, up to 6 months (p<0.0313)): statistically significant reduction
- fasting blood glucose, fructosamine and insulin reduction rate, 6 months ([7]; all SID/TOD test groups, 0.025 mg/kg with insulin, up to 6 months): improved
- inhibitory effect on human SGLT2 activity (human SGLT2): excellent inhibitory effect

From US20240245641A1, “PHARMACEUTICAL COMPOSITION FOR PREVENTING OR TREATING DIABETES MELLITUS IN ANIMAL OF FAMILY CANIDAE, COMPRISING ENAVOGLIFLOZIN” (DAEWOONG PHARMACEUTICAL CO., LTD., priority 2021, published 2024)
